Measured values from patent US9445588B2, “Methods for increasing oil palm yield” (Valent BioSciences Corporation, priority 2014, dated 2016).

Legend:
oil palm [1] = experiment: Field study, repeat bunch-directed preharvest application of AVG every 10 days (Example 1); type: in vivo, oil palm (bi-clonal DxP palms)
Procedure: Plant material: A field study was executed in a plantation in Malaysia to compare the effects of repeat bunch-directed applications of AVG to the untreated control (UTC). In this study, AVG was provided in a formulation as AVG-HCl at a concentration of 20% w/wt. For both treatments, 148 palms per block with 4 rows per block covering about 1.1 hectare were used. The bi-clonal DxP palms were 3 to 4 years old.
Treatment application: A motorized mist blower was used to apply AVG (500 ppm, at 600 mL/palm or 300 mg/palm/application) to the lower and most mature rows of bunches of each palm.
The time required for 360 degree spray application around each palm was about 30 seconds. Sprays were applied every 10 days which coincided with harvest frequency in this block. Treatments were applied from September to November 2013.
Harvest: Harvest picks occurred every 10 days. Bunches were harvested at the point of initial fruit drop. At harvest, UTC bunches had lost an average of 34.8 fruit/bunch and the AVG-treated bunches had lost 33.9 fruits/bunch. Bunch weight results were recorded over six harvests picks for the 10 representative palms that were tagged for each treatment.
Oil content: At each harvest pick beginning with the fourth harvest pick interval, bunches were selected and individually bagged, tagged, and transferred to the laboratory for determination of oil content. Bunch samples from each harvest were analyzed in the laboratory for oil content using standard methods (Blaak, et al., 1963, J. West African Institute of Oil Palm Research, 4:146-155).
Oil yield: Oil yield was determined as kg oil/bunch=oil content*bunch wt. […] Oil yield was 2.85 kg/bunch for the AVG treatment and 2.56 kg/bunch for the UTC.

oil palm [2] = experiment: Second field study, repeat preharvest AVG sprays every 20 days, harvest 10 days after treatment (Example 2); type: in vivo, oil palm (bi-clonal DxP palms); conditions: AVG 500 ppm
Procedure: Plant material: A second field study was executed in a plantation in Malaysia to compare the effects of repeat broadcast directed bunch applications of AVG to the untreated control (UTC). For both treatments, 148 palms per block with 4 rows per block covering about 1.1 ha were used. The bi-clonal DxP palms were 3 to 4 years old. Treatment application: A motorized mist blower was used to apply AVG (500 ppm at 600 mL/plant or 300 mg/palm/application) to the lower and most mature rows of bunches of each palm plant. The time required for 360 degree spray application per palm plant was about 30 seconds. Treatments were applied every 20 days and harvests of treated palms were 10 days after treatments. Untreated bunches were harvested every 10 days. Treatments were applied from September to November 2013. Oil yield: Oil yield was determined as kg oil/bunch=oil content*bunch wt. […] Oil yield was 2.80 kg/bunch for the AVG treatment and 2.51 kg/bunch for the UTC.

oil palm [3] = experiment: Oil quality (free fatty acid content) of oil from AVG-HCl treated oil palms; type: in vivo; conditions: Rath and Shashikant 2014, Valent BioSciences technical information
oil palm fruit = conditions: preharvest application to attached bunches of oil palm fruit; cited from earlier work

NCCO/C=C/[C@H](N)C(=O)O (stereo in doubt) [AVG, [S]-trans-2-amino-4-(2-aminoethoxy)-3-butenoic acid]
Average Oil Content (oil palm [1]; AVG 500 ppm, 600 mL/palm (300 mg/palm/application), sprays every 10 days, bunches from fourth harvest pick on): 0.284 oil wt/bunch wt | Oil Yield (oil content*bunch wt) (oil palm [1]; AVG 500 ppm, 600 mL/palm, sprays every 10 days): 2.85 kg oil/bunch | Average Bunch Weight (oil palm [1]; AVG 500 ppm, 600 mL/palm, sprays every 10 days, six harvest picks, 10 tagged palms): 10.02 kg/bunch | Average fruit lost per bunch at harvest (oil palm [1]; bunches harvested at the point of initial fruit drop, UTC 34.8 fruit/bunch): 33.9 fruits/bunch | Average Bunch Weight (oil palm [2]; 600 mL/plant): 9.36 kg/bunch | Oil Yield (oil content*bunch wt) (oil palm [2]; 600 mL/plant): 2.80 kg oil/bunch | Average Oil Content (oil palm [2]; 600 mL/plant (300 mg/palm/application)): 0.299 oil wt/bunch wt

Cl.NCCO/C=C/[C@H](N)C(=O)O [AVG-HCl]
Free fatty acid content of the oil (oil palm [3]): did not have increased free fatty acid content

O=P(O)(O)CCCl [ethephon, 2-chloroethyl phosphonic acid]
Increase in oil content (oil palm fruit): 7%
